Source: US7858105B2, “Inhibitors of melanocyte tyrosinase as topical skin lighteners” (Mediquest Therapeutics, Inc., priority 2000, dated 2010)
pIC50: −log10 of the molar value. Values after ≈ are worked out from the molar mass of the structure shown. Read-outs that look alike come from different tables or passages of the source.

How the values were obtained:
[1] = compared with HQ; cited from earlier work
[2] = system: Mel-Ab melanocytes; assay: mammalian-melanocyte-culture toxicity assay system; type: cell-based, mouse; conditions: read-out: T: concentration of compound that kills 50% of cells in the mammalian-melanocyte-culture toxicity assay system
Excerpt: (§1) In the present invention, one or all of three in vitro bioassays can be utilized to evaluate the efficacy and toxicity of candidate skin-lightening compounds. The three bioassays characterize the compounds with regard to mammalian tyrosinase enzyme inhibition (cell free), pigmentation in melanocyte cultured cells, and cytotoxicity of mammalian cultured cells. Both cell-based pigmentation and cell-free enzymatic assays have been developed using the mammalian melanocyte cell line, Mel-Ab, a C57BL/6 mouse-derived cell line that produces high levels of melanin. A distinct advantage of this approach is that humans share substantial sequence similarities in their genes (DNA) and proteins (such as tyrosinase) with mice, relative to non-mammalian species (e.g., mushrooms). So, mouse Mel-Ab melanocytes can serve as adequate surrogates for human melanocytes for many pharmacologic purposes.
[6] It should be noted that many inhibitors identified in cell-free enzymatic assays might have subsequent difficulties with toxicity or delivery in melanocyte cell-based assays. Therefore, all three in vitro assays in combination provide an excellent characterization of candidate skin lightening compounds.
(§2) A first class of compounds based upon the template compound benzimidazolethiol (lower left structure) were tested for tyrosinase inhibition, cell culture pigment inhibition, and toxicity, by methods described in Curto, E. V., et al. (1999).

[3] = system: Mel-Ab melanocytes; assay: mammalian-melanocyte-culture pigment assay system; type: cell-based, mouse; conditions: read-out: P: concentration of compound that produces 50% inhibition in the mammalian-melanocyte-culture pigment assay system
Excerpt: as §1
(§3) These adherent murine melanocytes are grown on tissue culture plastic in medium supplemented with fetal bovine serum, 12-O-tetradecanoylphorbol-13-acetate (TPA) to stimulate cell division via down-regulation of protein kinase C, [22, 23] and cholera toxin to stimulate adenylate cyclase activity in the absence of α-MSH. Cellular lysates of Mel-Ab cells may be used as tyrosinase enzyme preparations. Multi-well plate assays have been validated for enzyme inhibition (e.g., DOPA oxidation by colorimetric measurement or radiolabeled substrate incorporation into melanin) and for pigmentation assays on cultured Mel-Ab cells. After 4 days of treatment of cultured cells, melanin content is determined using a spectrophotometer at 400+ nm. This assay can detect an apparent loss in pigmentation resulting from either inhibition of de novo synthesis (e.g. via inhibition of tyrosinase, or the adenylate cyclase pathway, or another pathway) or a cytostatic/cytotoxic mechanism. It is therefore a broad primary screen. It is used in parallel with the tyrosinase enzymatic assay to determine whether an inhibitor of pigmentation at the cellular level is acting primarily at the enzyme level.
as §2

[4] = biological target: T1, mammalian tyrosinase (Mus musculus, UniProt P11344); assay: cell-free mammalian-enzyme assay system (tyrosinase inhibition, Mel-Ab cell lysates); type: biochemical; conditions: read-out: E: concentration of compound that produces 50% pigment inhibition in the cell-free mammalian-enzyme assay system
T1 construct: Cellular lysates of Mel-Ab cells may be used as tyrosinase enzyme preparations; endogenous in cells; host or cells: Mel-Ab mouse melanocytes (C57BL/6-derived), cell lysate
T1 sequence (P11344 19-533): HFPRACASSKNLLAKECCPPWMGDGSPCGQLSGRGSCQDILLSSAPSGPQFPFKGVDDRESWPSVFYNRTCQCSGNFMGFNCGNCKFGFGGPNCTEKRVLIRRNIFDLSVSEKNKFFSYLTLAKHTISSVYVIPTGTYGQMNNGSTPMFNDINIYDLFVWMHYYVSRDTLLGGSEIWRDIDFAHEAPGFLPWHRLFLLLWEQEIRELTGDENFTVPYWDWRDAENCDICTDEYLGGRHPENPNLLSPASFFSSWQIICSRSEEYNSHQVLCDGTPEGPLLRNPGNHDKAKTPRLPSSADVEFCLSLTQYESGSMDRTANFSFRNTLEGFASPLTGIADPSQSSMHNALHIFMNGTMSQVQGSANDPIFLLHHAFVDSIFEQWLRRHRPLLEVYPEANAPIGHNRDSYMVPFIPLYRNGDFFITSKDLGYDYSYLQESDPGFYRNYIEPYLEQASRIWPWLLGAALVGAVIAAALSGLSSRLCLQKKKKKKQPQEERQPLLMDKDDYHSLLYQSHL
Excerpt: as §1, §3
A distinct advantage of the screening systems (developed by the inventors of the present invention) is the focus on mammalian tyrosinase, as opposed to non-mammalian enzymes often used by other investigators, such as mushroom tyrosinase. Since the biochemical and pharmacologic characteristics of an enzyme or isozyme can vary dramatically between species of organisms (e.g., due to dissimilarities in primary, secondary, and tertiary structure), it is highly preferable that candidate topical skin lighteners intended for human use be discovered based on their biochemical action against a mammalian source of the enzyme. Mushroom tyrosinase (and in some instances plant polyphenol oxidases) has been used in the vast majority of prior inhibitor studies. […] Thus, the methods reported by the inventors of the present invention for screening against mammalian tyrosinase or within melanocytes is highly preferred over other possible screening strategies.
The substrate kinetic “affinity” of mammalian tyrosinase for L-tyrosine is approximately KM=600 μM. A potentially effective candidate skin lightening agent is considered to be desirable, active, and/or functional if it renders 50% inhibition of mammalian tyrosinase enzyme activity, at concentrations below half the enzyme's “affinity” for tyrosine in cell-free enzyme extracts (IC50≦300 μM) and pigment production in melanocyte cell cultures (IC50≦300 μM).
as §2

[5] = UV absorbance: extinction coefficient at wavelength of maximum absorbency; type: physicochemical; conditions: for compound extinction coefficient ε: at λmax
[6] = system: Mel-Ab melanocytes; conditions: cited from earlier work
[7] = biological target: T1, mammalian tyrosinase; conditions: cited from earlier work
[8] = system: Salmonella; conditions: cited from earlier work
[9] = system: Mel-Ab melanocytes; conditions: cited from earlier work; remark: listed apart in the source
[10] = system: Chinese hamster V79 cells; conditions: cited from earlier work

Compound: O=C(O)c1cc(O)ccc1O [GA, 2,5-dihydroxybenzoic acid]
- mutagenic activity [1]: lacking the mutagenic activity

Compound: COc1ccc(N)cc1OC [ID # 006]
- pIC50 ([2]; Mus musculus, Mel-Ab): < 3.00
- pIC50 ([3]; Mus musculus, Mel-Ab): 3.74
- pIC50 [4]: 3.96

Compound: Oc1ccc2c(c1)OCO2 [ID # 009]
- pIC50 ([2]; Mus musculus, Mel-Ab): 3.11
- pIC50 ([3]; Mus musculus, Mel-Ab): 3.68
- pIC50 [4]: 4.01

Compound: Oc1ccc2[nH]ccc2c1 [ID # 026]
- pIC50 ([2]; Mus musculus, Mel-Ab): 3.44
- pIC50 ([3]; Mus musculus, Mel-Ab): 3.82
- pIC50 [4]: 4.27

Compound: NC(=S)Nc1ccccc1 [ID # 033]
- pIC50 ([2]; Mus musculus, Mel-Ab): < 3.00
- pIC50 ([3]; Mus musculus, Mel-Ab): 4.92
- pIC50 [4]: 5.70

Compound: Sc1nc2ccccc2s1 [ID # 040]
- pIC50 [4]: 5.10

Compound: CC(=S)Nc1ccccc1 [ID # 054]
- pIC50 ([2]; Mus musculus, Mel-Ab): < 3.00
- pIC50 ([3]; Mus musculus, Mel-Ab): 4.80
- pIC50 [4]: 4.80

Compound: NCCc1cccs1 [ID # 073]
- pIC50 ([2]; Mus musculus, Mel-Ab): < 3.00
- pIC50 ([3]; Mus musculus, Mel-Ab): 4.00
- pIC50 [4]: < 3.00

Compound: Nc1ccc2c(c1)CCC2 [ID # 079]
- pIC50 ([2]; Mus musculus, Mel-Ab): 3.33
- pIC50 ([3]; Mus musculus, Mel-Ab): 4.15
- pIC50 [4]: 4.14

Compound: COc1ccc(CS)cc1 [ID # 082]
- pIC50 ([2]; Mus musculus, Mel-Ab): 3.30
- wavelength of maximum absorbency λmax [5]: 275 nm
- compound extinction coefficient ε [5]: 1000 OD/M × cm
- pIC50 ([3]; Mus musculus, Mel-Ab): 4.09
- pIC50 [4]: 5.30

Compound: CC(=O)Nc1ccc(S)cc1 [ID # 083]
- pIC50 ([2]; Mus musculus, Mel-Ab): 3.27
- wavelength of maximum absorbency λmax [5]: 265 nm
- compound extinction coefficient ε [5]: 4700 OD/M × cm
- pIC50 ([3]; Mus musculus, Mel-Ab): 4.09
- pIC50 [4]: 4.72

Compound: COc1cccc2[nH]c(S)nc12 [ID # 084]
- pIC50 [2]: < 3.00
- wavelength of maximum absorbency λmax [5]: 310 nm
- compound extinction coefficient ε [5]: 10000 OD/M × cm
- pIC50 [3]: 5.80
- pIC50 [4]: 7.15

Compound: CCOc1ccc2nc(S)sc2c1 [ID # 091]
- pIC50 [2]: < 3.00
- pIC50 [3]: < 3.00
- pIC50 [4]: < 3.00

Compound: COC(=O)c1cccc(N)c1 [ID # 092]
- pIC50 ([2]; Mus musculus, Mel-Ab): < 3.00
- pIC50 ([3]; Mus musculus, Mel-Ab): 3.63
- pIC50 [4]: 4.10

Compound: COc1ccc(OC)c(S)c1 [ID # 093]
- pIC50 [2]: 3.70
- wavelength of maximum absorbency λmax [5]: 305 nm
- compound extinction coefficient ε [5]: 2700 OD/M × cm
- pIC50 [3]: 3.70
- pIC50 [4]: 3.30

Compound: [Se]=c1[nH]c2ccccc2[nH]1 [ID # 098]
- pIC50 [2]: 3.88
- pIC50 [3]: 4.85
- pIC50 [4]: 6.10

Compound: COc1cccc(S)c1 [ID # 099]
- pIC50 ([2]; Mus musculus, Mel-Ab): 3.69
- wavelength of maximum absorbency λmax [5]: 265 nm
- compound extinction coefficient ε [5]: 3000 OD/M × cm
- pIC50 ([3]; Mus musculus, Mel-Ab): 4.07
- pIC50 [4]: 4.28

Compound: COc1ccc(C(N)=S)cc1 [ID # 100]
- pIC50 ([2]; Mus musculus, Mel-Ab): < 3.00
- pIC50 ([3]; Mus musculus, Mel-Ab): 4.21
- pIC50 [4]: 4.49

Compound: CSc1ccc(S)cc1 [ID # 102]
- pIC50 ([2]; Mus musculus, Mel-Ab): 3.90
- wavelength of maximum absorbency λmax [5]: 280 nm
- compound extinction coefficient ε [5]: 2300 OD/M × cm
- pIC50 ([3]; Mus musculus, Mel-Ab): 3.94
- pIC50 [4]: 6.62

Compound: COc1ccc(S)cc1OC [ID # 103]
- pIC50 ([2]; Mus musculus, Mel-Ab): < 3.00
- wavelength of maximum absorbency λmax [5]: 250 nm
- compound extinction coefficient ε [5]: 4300 OD/M × cm
- pIC50 ([3]; Mus musculus, Mel-Ab): 5.10
- pIC50 [4]: 5.10

Compound: S=c1[nH]c2cccnc2[nH]1 [ID # 135]
- pIC50 [2]: < 3.00
- pIC50 [3]: 3.59
- pIC50 [4]: 5.40

Compound: Sc1nc2ccccc2[nH]1 [ID # 138]
- wavelength of maximum absorbency λmax [5]: 300 nm
- compound extinction coefficient ε [5]: 14300 OD/M × cm
- pIC50 [4]: 6.60

Compound: Cc1cccc2[nH]c(S)nc12 [ID # 140]
- pIC50 [2]: < 3.00
- wavelength of maximum absorbency λmax [5]: 305 nm
- compound extinction coefficient ε [5]: 6300 OD/M × cm
- pIC50 [3]: 5.62
- pIC50 [4]: 6.92

Compound: CC(=O)Nc1ccc(SC(C)=O)cc1 [ID # 148]
- pIC50 [2]: 3.90
- wavelength of maximum absorbency λmax [5]: 255 nm
- compound extinction coefficient ε [5]: 3300 OD/M × cm
- pIC50 [3]: 4.52
- pIC50 [4]: 3.30

Compound: CC(=O)n1c(=S)[nH]c2ccccc21 [ID # 205]
- pIC50 ([2]; Mus musculus, Mel-Ab): 4.46
- pIC50 ([3]; Mus musculus, Mel-Ab): 5.08
- pIC50 [4]: 6.30

Compound: Oc1ccc(O)cc1 [hydroquinone]
- IC50 on Mel-Ab culture ([6]; positive control, owing to cytotoxicity, not inhibition of pigmentation per se): low micrograms per milliliter range
- inhibition of the mammalian tyrosinase enzyme (in words) [7]: minimal enzymatic inhibition
- inhibition of the mammalian tyrosinase enzyme (in words) ([7]; listed as HQ): not an effective inhibitor
- mutagenicity in Salmonella [8]: mutagenic
- cytotoxicity to cultured mammalian melanocytes (in words) [9]: potent cytotoxicity
- cytotoxicity to cultured mammalian melanocytes (in words) ([9]; listed as HQ): cytotoxic
- mutagenicity in mammalian Chinese hamster V79 cells [10]: mutagenic

Compound: COC(=O)c1cc(O)ccc1O [methyl gentisate]
- IC50 in melanocyte cell cultures ([6]; Curto et al. (1999)): 30.9 ± 5 µg/mL (≈ 184 µM)
- inhibition of melanin accumulation (in words) ([6]; murine melanocyte cell culture primary screen): moderately potent inhibitor
- IC50 against tyrosinase activity in cell-free assays ([7]; Curto et al. (1999)): 11.2 ± 4 µg/mL (≈ 66.6 µM)
- mutagenic activity [1]: lacking the mutagenic activity
- melanocyte cytotoxicity IC50 ([9]; Curto et al. (1999)): 118.7 ± 12 µg/mL
